Measurements taken from the NIST ThermoML archive (doi:10.1016/j.jct.2015.09.018).

Experiment: molar heat capacity at constant pressure
Settings: 101.33 kPa, Crystal 3, relaxation calorimetry

[O-2].[O-2].[Ti+4] [titanium(IV) oxide]
Settings	molar heat capacity at constant pressure [J/K/mol]
0.5 K	0.000432
1 K	0.00103
1.5 K	0.00196
2 K	0.00337
2.01 K	0.00218
2.35 K	0.00327
2.47 K	0.00544
2.5 K	0.00541
2.88 K	0.00862
3 K	0.00821
3.5 K	0.0119
3.72 K	0.01489
4 K	0.0165
4.31 K	0.02048
4.5 K	0.0221
4.54 K	0.02277
4.77 K	0.02538
5 K	0.0288
5.03 K	0.02844
5.32 K	0.03402
5.5 K	0.0365
5.56 K	0.03861
5.85 K	0.04314
6 K	0.0454
6.14 K	0.04818
6.46 K	0.05442
6.5 K	0.0553
6.84 K	0.06161
7 K	0.0662
7.16 K	0.06852
7.5 K	0.0782
7.53 K	0.07958
7.93 K	0.08951
8 K	0.0911
8.34 K	0.1005
8.5 K	0.105
8.78 K	0.1124
9 K	0.12
9.23 K	0.1263
9.5 K	0.135
9.74 K	0.1441
10 K	0.152
10.23 K	0.1603
10.79 K	0.1786
11 K	0.187
11.34 K	0.2003
11.93 K	0.2256
12 K	0.227
12.55 K	0.2505
13 K	0.271
13.2 K	0.2793
13.91 K	0.3136
14 K	0.318
14.6 K	0.3493
15 K	0.37
15.37 K	0.3923
16 K	0.428
16.16 K	0.4371
16.99 K	0.4905
17 K	0.491
17.87 K	0.5493
18 K	0.559
18.78 K	0.6158
19 K	0.634
19.77 K	0.6928
20 K	0.714
20.78 K	0.7811
21.84 K	0.8773
23.01 K	0.9887
24.2 K	1.12
25 K	1.21
25.43 K	1.26
26.78 K	1.42
28.14 K	1.6
29.6 K	1.8
30 K	1.85
31.12 K	2.01
32.74 K	2.25
34.45 K	2.52
35 K	2.62
36.24 K	2.82
38.12 K	3.16
40 K	3.52
40.1 K	3.54
42.19 K	3.95
44.41 K	4.41
45 K	4.54
46.71 K	4.93
49.16 K	5.48
50 K	5.66
51.71 K	6.07
54.41 K	6.71
55 K	6.87
57.24 K	7.42
60 K	8.12
60.22 K	8.18
63.37 K	8.97
65 K	9.38
66.7 K	9.78
70 K	10.75
70.19 K	10.75
73.8 K	11.78
75 K	12.2
77.13 K	12.82
80 K	13.67
81.7 K	13.98
85 K	15.16
85.33 K	15.22
89.74 K	16.6
90 K	16.65
94.38 K	17.97
95 K	18.14
99.29 K	19.28
100 K	19.6
104.43 K	20.84
109.84 K	22.53
110 K	22.48
115.54 K	24.21
120 K	25.26
121.46 K	25.88
128.44 K	27.05
130 K	27.96
134.65 K	29.35
140 K	30.55
141.61 K	31.35
148.86 K	33.43
150 K	33.04
156.57 K	35.12
160 K	35.43
165.09 K	36.06
170 K	37.72
173.67 K	37.71
180 K	39.89
182.65 K	39.71
190 K	41.95
192.19 K	41.35
200 K	43.91
201.69 K	44.69
210 K	45.75
212.16 K	46.49
220 K	47.49
223.15 K	48.5
230 K	49.13
234.7 K	50.34
240 K	50.66
246.88 K	52.02
250 K	52.11
259.67 K	53.63
260 K	53.46
270 K	54.73
273.07 K	55.28
273.15 K	55.11
280 K	55.92
287.77 K	56.22
290 K	57.04
298.15 K	57.89
300 K	58.08
302.73 K	58.1
305 K	58.58
